For 5 compounds, mortality, Ranking and LC50 results are on record in US4389412A, “Substituted cyclopropanecarboxylic acid esters and pesticidal compositions containing the same as active ingredient” (priority 1979, dated 1983).

In data set [1] the test system is green rice leafhoppers (Nephotettix cincticeps Uhler). Nature of the data set: Utility Example-2: spray on rice plants, green rice leafhoppers. It is filed as in vivo. As to conditions: 7 ml/pot, 24 hours. As to the method:
A 30% emulsifiable concentrate of each of the cis- and trans-isomers and a 50:50 mixture of the cis- and trans-isomers of Compound (1) and Compound (2) as prepared by the procedure described in Formulation Example-1 was diluted with water to a concentration of 80 ppm as active compound. Rice plants 4 weeks after sowing in pots (each pot 6 cm in diameter, 7 seedlings) were sprayed with the above solution at the rate of 7 ml/pot and, after drying in the air, each pot was covered with a wire-mesh cage. Then, 20 female adult green rice leafhoppers (Nephotettix cincticeps Uhler) were released into the cage. The caged pots were kept in a constant-temperature chamber at 25° C. […] In all groups, the mortality values were not less than 90%.

Data set [2] has the same test system. Put plainly: Utility Example-4: 0.2% dust on rice seedlings, green rice leafhoppers. The format is in vivo. As to conditions: 5 kg per 10 ares, 24 hours, resistant to organophosphorus and carbamate pesticides. The source says:
A 0.2% dust preparation of each of the cis- and trans-isomers and a 50:50 mixture of the cis- and trans-isomers of Compound (1) and of Compound (2) as prepared by the procedure described in Formulation Example-3 was applied to rice seedlings by means of a bell-jar duster at the rate of 5 kg per 10 ares. […] In all cases, the mortality was not less than 90%.

In the next data set the test system is carp and water flea. Nature of the data set: Fish toxicity ranking according to Japanese regulations. Details: species or system Cyprinus carpio L; Daphnia pulex. To be noted: from TLm for carp and water flea. The gist of the method:
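Ranking per Japanese agrochemical regulations from median tolerance limits: A = carp TLm (48 hrs.) >10 ppm and water flea TLm (3 hrs.) >0.5 ppm; B = carp 10-0.5 ppm, or carp >10 ppm with water flea <0.5 ppm; C = carp TLm (48 hrs.) <0.5 ppm.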

A short description of data set [3]: Fish toxicity test with carp. It is filed as in vivo, Cyprinus carpio L. To be noted: carp, water. The gist of the method:
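Compound in acetone with Tween-20 dispersed in 50 L aerated water at a set concentration; five carp (about 6 g, 6 cm) exposed at 21±1° C. Deaths checked after 48 h, and TLm (median tolerance limit, ppm) determined.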

The subject of data set [4] is houseflies (Musca domestica). Nature of the data set: Mortality test with houseflies by topical application method. As to conditions: 24 h; for mortality at 0.001 mg: read-out: Pesticidal effect, housefly.
Description: Mortality test with houseflies (Musca domestica) by topical application method
Each of the compounds according to this invention and the control compounds (Table 2) was accurately weighted and a 0.1% solution of each sample in acetone was prepared. Female adult houseflies (Musca domestica) resistant to organophosphorus pesticides, were anesthetized with ether and 0.5 μl or 1.0 μl of the above solution was micropipetted onto the prothoracic dorsal region of each insect. The insects were then put in a high-walled dish together with feed and the dish was covered with a wire-mesh cover and kept at a temperature of 25° C. The test insects were used in groups of 30 individuals each. After 24 hours the insects were examined for deaths and the percent mortality was calculated.
The test system of data set [5] is brown planthoppers (Nilaparvata lugens Stal). Put plainly: Utility Example-1: LC50 on adult brown planthoppers on dipped rice plants. As to conditions: Nilaparvata lugens, 24 h, 25° C., read-out: Pesticidal activity LC50. It is filed as in vivo. In short, it runs like this: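 Rice plants 4 weeks from sowing were dipped in water-diluted 1% emulsifiable concentrate at set concentrations and air-dried. Thirty adult N. lugens were caged on each pot, held at 25 °C.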

Data set [6] deals with tobacco cutworms (Prodenia litura Fabricius). Nature of the data set: Mortality test with tobacco cutworms by topical application method. The format is in vivo. As to conditions: 24 h. Here is the method:
Mortality test with tobacco cutworms (Prodenia litura Fabricius) by topical application method
Using a microsyringe, 0.5 μl of the above solution was dripped onto the thoracic adbominal region of each of 3-instar tobacco cutworm (Prodenia litura Fabricius) larvae. […] The test larvae were used in groups of 20 individuals each.

Data set [7] relates to two-spotted spider mites (Tetranychus urticae Koch). Put plainly: Mortality test with two-spotted spider mites by spray application method. To be noted: 48 h, 200 ppm spray, two days, read-out: Percent decrease of population (%). The format is in vivo. Here is the method:
Mortality test with two-spotted spider mites (Tetranychus urticae Koch) by spray application method
To a 5% aqueous solution of acetone was added dropwise a small amount of Tween-20 (polyethylene sorbitan monolaurate) as a surfactant. […] From 30 to 50 adult two-spotted spider mites (Tetranychus urticae Koch) were released on the leaves of kidney-bean plants in the dicotyledonous stage in a pot 9 cm in diameter, followed by a spray application of the above solution. The pot was kept in a constant-temperature chamber at 26° C. and two days later the mites were examined for deaths. The percent decrease of population was then calculated.

Data set [8] concerns green rice leafhoppers (Nephotettix cincticeps). Nature of the data set: Utility Example-6: 0.5% dust on rice seedlings, green rice leafhoppers. It is filed as in vivo. As to conditions: 1 kg per 10 ares, 24 hours, resistant to organophosphorus and carbamate pesticides. The source says:
A 0.5% dust preparation of each of the cis- and trans-isomers and a 50:50 mixture of the cis- and trans-isomers of Compound (1) and of Compound (2) as prepared by the procedure described in Formulation Example-4 was applied to rice seedlings by means of a bell-jar duster at the rate of 1 kg per 10 ares. Then, 30 green rice leafhoppers (Nephotettix cincticeps) resistant to organophosphorus and carbamate pesticides were released. […] In all cases, the mortality was not less than 90%.

Data set [9] has as its system brown planthoppers (Nilaparvata lugens). Nature of the data set: Utility Example-7: 0.5% dust on rice seedlings, brown planthoppers. The format is in vivo. To be noted: 1 kg per 10 ares, 24 hours. The source says:
A 0.5% dust preparation of each of the cis- and trans-isomers and a 50:50 mixture of the cis- and trans-isomers of Compound (1) and of Compound (2) as prepared by the procedure described in Formulation Example-4 was applied to rice seedlings, on which 30 adult brown planthoppers (Nilaparvata lugens) were released, by means of a bell-jar duster at the rate of 1 kg per 10 ares. […] In all cases, the mortality was not less than 90%.

Setting [10] is: 48 hrs., 21±1° C., read-out: TLm, Carp (48 hrs.).
The mark [11] stands for this setting: read-out: Pesticidal effect, tobacco cutworm.

Converted amounts (≈) assume the structure as drawn. Read-outs that look alike come from different tables or passages of the source.

As to `CC1(C)[C@@H](C=C(Cl)Cl)[C@@H]1C(=O)OCc1cccc(Oc2ccc(Cl)cc2)c1` (relative stereo) [Compound (1) trans-, 3-(4-chlorophenoxy)benzyl trans-2,2-dimethyl-3-(2,2-dichlorovinyl)cyclopropanecarboxylate], in [1], the mortality at 80 ppm is ≥ 90%. The mortality result in data set [2], in data set [8] and in [9] was “not less than 90%” in each case. Moreover, in the data set with carp and water flea, the Ranking result is “B (TLm (48 hrs.) value 10-0.5 ppm for carp; or TLm (48 hrs.) value >10 ppm for carp and TLm (3 hrs.) value <0.5 ppm for water flea, wherein appreciable toxicity to fishes is not observed by usual application but may be observed when applied to wide area at one time.)”. Further, the LC50 at 48 h in data set [3] (setting [10]) came to 4.5 µg/mL (≈ 10.6 µM). Also, the mortality at 0.5 µg/female in data set [4] stood at 100%. For the same compound, the mortality at 1 µg/female in [4] turned out to be 100%. In addition, the LC50 in data set [5] came to 650 µg/mL (≈ 1530 µM). This compound came in with a mortality at 0.0001 mg in [6] of 100%. Further, the mortality at 200 ppm in data set [7] turned out to be 100%.
With `C#CC(OC(=O)[C@@H]1[C@H](C=C(Cl)Cl)C1(C)C)c1cccc(Oc2ccc(Cl)cc2)c1` (relative stereo) [Compound (2) cis-], in [1], the mortality at 80 ppm was ≥ 90%. The mortality result in data set [2], in data set [8] and in data set [9] was “not less than 90%” in each case. The Ranking result with carp and water flea was “B (TLm (48 hrs.) value 10-0.5 ppm for carp; or TLm (48 hrs.) value >10 ppm for carp and TLm (3 hrs.) value <0.5 ppm for water flea, wherein appreciable toxicity to fishes is not observed by usual application but may be observed when applied to wide area at one time.)”. Moreover, the LC50 at 48 h in data set [3] (setting [10]) was determined as 0.83 µg/mL (≈ 1.85 µM). Besides, the mortality at 0.5 µg/female in data set [4] was 100%. Moreover, the mortality at 1 µg/female in data set [4] is 100%. In addition, the LC50 in data set [5] was determined as 200 µg/mL (≈ 445 µM). The mortality at 0.0001 mg in [6] was found to be 100%. For the same compound, the mortality at 200 ppm in data set [7] stood at 100%.
In the case of `C#CC(OC(=O)[C@@H]1[C@@H](C=C(Cl)Cl)C1(C)C)c1cccc(Oc2ccc(Cl)cc2)c1` (relative stereo) [Compound (2) trans-], in [1], the mortality at 80 ppm was ≥ 90%. For the same compound, the mortality entry in [2], in data set [8] and in data set [9] was “not less than 90%” throughout. Further, in the data set on carp and water flea, the Ranking entry was “A (TLm (48 hrs.) value >10 ppm for carp and TLm (3 hrs.) value >0.5 ppm for water flea, wherein toxicity to fishes is not observed by usual application.)”. In addition, the LC50 at 48 h was > 10 µg/mL in data set [3] (setting [10]); > 10 µg/mL in data set [3] (Table 12 and text of Utility Example-1, read-out: Toxicity to fish TLm). In [4], the mortality at 0.5 µg/female came out at 100%. Moreover, in data set [4], the mortality at 1 µg/female turned out to be 100%. Moreover, in data set [5], the LC50 is 180 µg/mL (≈ 400 µM). Also, the mortality at 0.0001 mg in data set [6] is 100%. Moreover, the mortality at 200 ppm in data set [7] is 100%.
`C#CC(OC(=O)C1C(C=C(Cl)Cl)C1(C)C)c1cccc(Oc2ccc(Cl)cc2)c1` (stereo not drawn) [Compound (2) cis-/trans- = 50:50, 3-(4-chlorophenoxy)-α-ethynylbenzyl 2,2-dimethyl-3-(2,2-dichlorovinyl)cyclopropanecarboxylate]: in [1], the mortality at 80 ppm was ≥ 90%. The mortality entry in data set [2], in data set [8] and in data set [9] was “not less than 90%” each time. The Ranking entry with carp and water flea was “B (TLm (48 hrs.) value 10-0.5 ppm for carp; or TLm (48 hrs.) value >10 ppm for carp and TLm (3 hrs.) value <0.5 ppm for water flea, wherein appreciable toxicity to fishes is not observed by usual application but may be observed when applied to wide area at one time.)”. In data set [4], this compound returned a mortality at 0.5 µg/female of 100%. Besides, the mortality at 1 µg/female in data set [4] is 100%. In addition, the mortality at 0.001 mg in [4] is 100%. Also, the LC50 in data set [5] was 190 µg/mL (≈ 422 µM). Besides, the mortality at 0.0001 mg in [6] and in data set [6] (setting [11]) was 100% each time. Besides, the mortality at 200 ppm in data set [7] stood at 100%.
As for `CC1(C)C(C=C(Cl)Cl)C1C(=O)OCc1cccc(Oc2ccccc2)c1` (stereo not shown) [Compound (B), Permethrin], the Ranking result with carp and water flea was “C (TLm (48 hrs.) value <0.5 ppm for carp, wherein toxicity to fishes is so strongly observed by usual application that both the application method and application area are strictly restricted.)”. The LC50 at 48 h in [3] (setting [10]) worked out at 0.015 µg/mL (≈ 0.0383 µM). For the same compound, in [4], the mortality at 0.5 µg/female was found to be 100%, the mortality at 1 µg/female worked out at 100% and the mortality at 0.001 mg is 100%. Further, the LC50 in data set [5] amounted to 700 µg/mL (≈ 1790 µM). The same compound displayed a mortality at 0.0001 mg in data set [6] of 85%. The mortality at 0.0001 mg in data set [6] (setting [11]) worked out at 85%. Moreover, the mortality at 200 ppm in data set [7] stood at 100%.
